# PubChem BioAssay (NCI)
#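 Five concentrations, 48 hours, 96-well plates. The concentration for 50% growth inhibition is given as GI50. TGI denotes the concentration required for complete inhibition of growth.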
# Experiments:
# Assay in all cases: DTP human tumour cell line panel, 48 h
# M14 melanoma = tested on: M14 melanoma
# UO-31 renal = tested on: UO-31 renal
# MOLT-4 leukemia = tested on: MOLT-4 leukemia
# UACC-257 melanoma = tested on: UACC-257 melanoma
# MDA-MB-231 breast = tested on: MDA-MB-231 breast
# NCI-H226 lung = tested on: NCI-H226 lung
# T-47D breast = tested on: T-47D breast
# U251 CNS = tested on: U251 CNS
# ACHN renal = tested on: ACHN renal
# LOX IMVI melanoma = tested on: LOX IMVI melanoma
Compound,GI50 (M14 melanoma),TGI (M14 melanoma),GI50 (UO-31 renal),TGI (UO-31 renal),GI50 (MOLT-4 leukemia),TGI (MOLT-4 leukemia),GI50 (UACC-257 melanoma),TGI (UACC-257 melanoma),GI50 (MDA-MB-231 breast),TGI (MDA-MB-231 breast),GI50 (NCI-H226 lung),TGI (NCI-H226 lung),GI50 (T-47D breast),TGI (T-47D breast),GI50 (U251 CNS),TGI (U251 CNS),GI50 (ACHN renal),TGI (ACHN renal),GI50 (LOX IMVI melanoma),TGI (LOX IMVI melanoma)
N#C/C(=C\c1ccccn1)c1nc2ccccc2o1,30.7 µM,> 100 µM,18.8 µM,59.7 µM,24.6 µM,82.6 µM,35.8 µM,> 100 µM,27.9 µM,> 100 µM,39.3 µM,> 100 µM,14.5 µM,34.3 µM,21.5 µM,49.8 µM,19.2 µM,46.6 µM,17 µM,38.1 µM
CC1=C(C(=O)Nc2cc(F)c(F)cc2F)C(c2ccc(N(C)C)cc2)C(C(=O)Nc2cc(F)c(F)cc2F)=C(C)N1,,> 100 µM,,> 84.4 µM,,> 77.2 µM,,> 82.8 µM,19 µM,> 100 µM,,> 92.9 µM,3.64 µM,59.2 µM,,> 100 µM,,> 87.9 µM,,> 100 µM
O=C1C2C3C=CC(C2C(=O)N1CN1CCOCC1)C1C2C(=O)N(CN4CCOCC4)C(=O)C2C31 (configuration not stated),,> 57.2 µM,,> 84.6 µM,,53.3 µM,,> 71.5 µM,,> 100 µM,,> 84.3 µM,,> 100 µM,,> 63.2 µM,,> 91.5 µM,,> 60.9 µM
O=[N+]([O-])c1cc2c(ccc3ccccc32)o1,0.173 µM,0.472 µM,0.403 µM,2.82 µM,0.47 µM,73.9 µM,0.188 µM,0.417 µM,0.442 µM,2.89 µM,1.27 µM,4.22 µM,1.57 µM,31.9 µM,0.835 µM,5.62 µM,0.147 µM,0.48 µM,0.166 µM,0.487 µM
COc1cccc(C2=C(c3cn(C)c4c(C)cccc34)C(=O)NC2=O)c1,> 25 µM,> 25 µM,> 20.2 µM,> 25 µM,16.3 µM,> 25 µM,> 25 µM,> 25 µM,24.5 µM,> 25 µM,19.4 µM,> 25 µM,> 20.2 µM,> 25 µM,14.9 µM,> 25 µM,16.8 µM,> 25 µM,> 25 µM,> 25 µM
